Data: patent US20250361268A1, “NOVEL ANTI-INFLAMMATORY PEPTIDE AND USE THEREOF” (NOVACELL TECHNOLOGY INC., priority 2022, published 2025)
Peptide text beside a SMILES is read from it.

Columns and labels:
FPR1 = biological target: T1, FPR1 (Homo sapiens, UniProt P21462); assay: Change in calcium activity by peptide, FPR1 activation effect; assay type: cell-based; details: calcium activity (Fura-2), graded per Table 3, read-out: EC50 for [Ca^2+] FPR1
T1 sequence (P21462 1-350): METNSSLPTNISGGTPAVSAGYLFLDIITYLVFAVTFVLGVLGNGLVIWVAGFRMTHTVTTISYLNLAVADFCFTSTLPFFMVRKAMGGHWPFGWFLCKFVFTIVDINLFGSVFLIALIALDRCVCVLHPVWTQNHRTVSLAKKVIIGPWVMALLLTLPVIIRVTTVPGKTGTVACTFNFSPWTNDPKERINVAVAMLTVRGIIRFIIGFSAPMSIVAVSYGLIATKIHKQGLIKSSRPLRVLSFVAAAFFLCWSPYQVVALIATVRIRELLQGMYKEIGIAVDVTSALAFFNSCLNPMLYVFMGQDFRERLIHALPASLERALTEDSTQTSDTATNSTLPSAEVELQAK
Procedure: The day before measuring calcium activity, the cells were prepared at 3×10^5 cells per well in a 96-well flat clear bottom black plate (Costar, #3603). The prepared cells were treated with a Fura-2 QBT calcium kit (component A; Molecular Devices, #8197) at the same volume per well. After incubation at 37° C. for 1 hour, the cells were incubated in a dark room at room temperature for 30 minutes. After the Fura-2-treated cells, the prepared peptide, and a dedicated tip were placed at each section of FlexStation 3 Multi-Mode Microplate Reader (Molecular Devices, #Flex3), changes in calcium activity caused by the peptides were measured using SoftMax Pro 7 Software (Molecular Devices, #FLEX3-INSTALL-OS). […]

FPR2 = biological target: T2, FPR2 (Homo sapiens, UniProt P25090); assay: Change in calcium activity by peptide (Fura-2) in RBL cells overexpressing FPR2; assay type: cell-based; details: calcium activity (Fura-2), graded per Table 3, read-out: EC50 for [Ca^2+] FPR2
T2 construct: expressed in transfected cells; host or cells: RBL cells (RBL-FPR2)
T2 sequence (P25090 1-351): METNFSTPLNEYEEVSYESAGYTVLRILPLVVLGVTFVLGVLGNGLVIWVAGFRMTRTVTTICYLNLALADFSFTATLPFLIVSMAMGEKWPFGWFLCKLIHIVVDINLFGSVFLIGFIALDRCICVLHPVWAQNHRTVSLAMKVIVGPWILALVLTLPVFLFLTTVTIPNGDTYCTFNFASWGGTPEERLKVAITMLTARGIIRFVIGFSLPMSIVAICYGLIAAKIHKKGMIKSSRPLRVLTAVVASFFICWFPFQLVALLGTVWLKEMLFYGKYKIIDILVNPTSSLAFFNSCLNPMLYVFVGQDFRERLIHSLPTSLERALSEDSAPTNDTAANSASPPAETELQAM
Procedure: The present inventors observed changes in calcium ion permeability to confirm whether the immunomodulatory peptide candidates prepared according to one example of the present invention activate the immune function of a living organism. Specifically, the concentration of calcium ions in cells was measured to confirm whether the peptides activate FPR2.
A peptide dissolved in water or 50% DMSO at a concentration of 0.5 mM was prepared by diluting it to an appropriate concentration in HBSS (Sigma, #55037C)+20 mM HEPES buffer.
In this experiment, the cells were cultured in DMEM (Lonza, #BE12-604F) containing 10% fetal bovine serum (FBS) and 1% penicillin-streptomycin under conditions of 37° C. and 5% CO2.
The day before measuring calcium activity, the cells were prepared at 3×10^5 cells per well in a 96-well flat clear bottom black plate (Costar, #3603). The prepared cells were treated with a Fura-2 QBT calcium kit (component A; Molecular Devices, #8197) at the same volume per well. After incubation at 37° C. for 1 hour, the cells were incubated in a dark room at room temperature for 30 minutes. After the Fura-2-treated cells, the prepared peptide, and a dedicated tip were placed at each section of FlexStation 3 Multi-Mode Microplate Reader (Molecular Devices, #Flex3), changes in calcium activity caused by the peptides were measured using SoftMax Pro 7 Software (Molecular Devices, #FLEX3-INSTALL-OS).

Structure (SMILES)	EC50 (FPR1) [nM]	EC50 (FPR2) [nM]
CCCCCCCC(=O)N1CCC[C@H]1C(=O)N[C@@H](CCSC)C(=O)N[C@@H](CCCNC(=N)N)C(=O)N[C@@H](Cc1ccc(O)cc1)C(=O)N[C@@H](CCCCN)C(=O)N1CCC[C@H]1C(=O)N[C@H](CCSC)C(N)=O [Peptide 65] (HELM PEPTIDE1{[CCCCCCCC(=O)[*:2]].P.M.R.Y.K.P.[dM].[am]}$$$$V2.0)	> 10000	< 10
CCCC(=O)N[C@@H](CCCCN)C(=O)N[C@@H](CCSC)C(=O)N[C@@H](CCCCN)C(=O)N[C@@H](Cc1ccc(O)cc1)C(=O)N[C@@H](CCCCN)C(=O)N1CCC[C@H]1C(=O)N[C@H](CCSC)C(N)=O [Peptide 68] (HELM PEPTIDE1{[CCCC(=O)[*:2]].K.M.K.Y.K.P.[dM].[am]}$$$$V2.0)	> 10000	< 10
CCCC(=O)N[C@@H](CCSC)C(=O)N[C@@H](CCCNC(=N)N)C(=O)N[C@@H](Cc1ccc(O)cc1)C(=O)N[C@@H](Cc1c[nH]c2ccccc12)C(=O)N[C@@H](Cc1ccc(O)cc1)C(=O)N[C@H](CCSC)C(N)=O [Peptide 87] (HELM PEPTIDE1{[CCCC(=O)[*:2]].M.R.Y.W.Y.[dM].[am]}$$$$V2.0)	> 10000	< 10
CSCC[C@H](NC(=O)[C@H](CCCCN)NC(C)=O)C(=O)N[C@@H](CCCCN)C(=O)N[C@@H](Cc1ccc(O)cc1)C(=O)N[C@@H](CCCCN)C(=O)N[C@H](C(=O)N[C@H](CCSC)C(N)=O)C(C)C [Peptide 10] (HELM PEPTIDE1{[ac].K.M.K.Y.K.V.[dM].[am]}$$$$V2.0)	> 10000	11 to 100
CSCC[C@@H](NC(=O)[C@@H]1CCCN1C(=O)[C@H](CCCCN)NC(=O)[C@H](Cc1ccc(O)cc1)NC(=O)[C@H](CCCNC(=N)N)NC(=O)[C@H](Cc1c[nH]c2ccccc12)NC(=O)[C@@H](N)CCCNC(=N)N)C(N)=O [Peptide 74] (HELM PEPTIDE1{R.W.R.Y.K.P.[dM].[am]}$$$$V2.0)	> 10000	< 10
CSCC[C@H](N)C(=O)N[C@@H](CCCNC(=N)N)C(=O)N[C@@H](Cc1ccc(O)cc1)C(=O)N[C@@H](CCCCN)C(=O)N1CCC[C@H]1C(=O)N[C@H](CCSC)C(N)=O [Peptide 54] (HELM PEPTIDE1{M.R.Y.K.P.[dM].[am]}$$$$V2.0)	> 10000	< 10
CSCC[C@H](NC(=O)[C@H](CCCNC(=N)N)NC(C)=O)C(=O)N[C@@H](CCCNC(=N)N)C(=O)N[C@@H](Cc1ccc(O)cc1)C(=O)N[C@@H](Cc1ccc(O)cc1)C(=O)N[C@@H](Cc1ccc(O)cc1)C(=O)N[C@H](CCSC)C(N)=O [Peptide 125] (HELM PEPTIDE1{[ac].R.M.R.Y.Y.Y.[dM].[am]}$$$$V2.0)	> 10000	< 10
CC[C@H](C)[C@H](NC(C)=O)C(=O)N[C@@H](CCCCN)C(=O)N[C@@H](Cc1ccc(O)cc1)C(=O)N[C@@H](CCCCN)C(=O)N[C@H](C(=O)N[C@H](CCSC)C(N)=O)C(C)C [Peptide 135] (HELM PEPTIDE1{[ac].I.K.Y.K.V.[dM].[am]}$$$$V2.0)	> 10000	< 10
CSCC[C@H](NC(=O)[C@@H]1CCCN1)C(=O)N[C@@H](CCCNC(=N)N)C(=O)N[C@@H](Cc1ccc(O)cc1)C(=O)N[C@@H](CCCCN)C(=O)N1CCC[C@H]1C(=O)N[C@H](CCSC)C(N)=O [Peptide 62] (HELM PEPTIDE1{P.M.R.Y.K.P.[dM].[am]}$$$$V2.0)	> 10000	< 10
CCCC(=O)N[C@H](C(=O)N[C@@H](CCCCN)C(=O)N[C@@H](Cc1ccc(O)cc1)C(=O)N[C@@H](CCCCN)C(=O)N1CCC[C@H]1C(=O)N[C@H](CCSC)C(N)=O)[C@@H](C)CC [Peptide 144] (HELM PEPTIDE1{[CCCC(=O)[*:2]].I.K.Y.K.P.[dM].[am]}$$$$V2.0)	> 10000	< 10
CSCC[C@H](NC(=O)[C@H](Cc1c[nH]cn1)NC(C)=O)C(=O)N[C@@H](CCCNC(=N)N)C(=O)N[C@@H](Cc1ccc(O)cc1)C(=O)N[C@@H](Cc1c[nH]c2ccccc12)C(=O)N[C@@H](Cc1ccc(O)cc1)C(=O)N[C@H](CCSC)C(N)=O [Peptide 92] (HELM PEPTIDE1{[ac].H.M.R.Y.W.Y.[dM].[am]}$$$$V2.0)	> 10000	< 10

Next, values leading:

EC50 (FPR1) [nM]	EC50 (FPR2) [nM]	Structure (SMILES)
> 10000	< 10	CCCC(=O)N[C@@H](Cc1c[nH]cn1)C(=O)N[C@@H](CCSC)C(=O)N[C@@H](CCCCN)C(=O)N[C@@H](Cc1ccc(O)cc1)C(=O)N[C@@H](CCCCN)C(=O)N[C@H](C(=O)N[C@H](CCSC)C(N)=O)C(C)C [Peptide 23] (HELM PEPTIDE1{[CCCC(=O)[*:2]].H.M.K.Y.K.V.[dM].[am]}$$$$V2.0)
> 10000	< 10	CSCC[C@@H](NC(=O)[C@H](Cc1ccc(O)cc1)NC(=O)[C@H](Cc1c[nH]c2ccccc12)NC(=O)[C@H](Cc1ccc(O)cc1)NC(=O)[C@H](CCCNC(=N)N)NC(=O)[C@H](Cc1c[nH]c2ccccc12)NC(=O)[C@H](CCCNC(=N)N)NC(C)=O)C(N)=O [Peptide 78] (HELM PEPTIDE1{[ac].R.W.R.Y.W.Y.[dM].[am]}$$$$V2.0)
> 10000	< 10	CSCC[C@@H](NC(=O)[C@H](Cc1ccc(O)cc1)NC(=O)[C@H](Cc1ccccc1)NC(=O)[C@H](Cc1ccc(O)cc1)NC(=O)[C@H](CCCNC(=N)N)NC(=O)[C@H](Cc1c[nH]c2ccccc12)NC(=O)[C@@H](N)CCCNC(=N)N)C(N)=O [Peptide 156] (HELM PEPTIDE1{R.W.R.Y.F.Y.[dM].[am]}$$$$V2.0)
> 10000	11 to 100	CSCC[C@H](NC(=O)[C@@H](N)Cc1c[nH]cn1)C(=O)N[C@@H](CCCNC(=N)N)C(=O)N[C@@H](Cc1ccc(O)cc1)C(=O)N[C@@H](CCCCN)C(=O)N[C@@H](Cc1ccc(O)cc1)C(=O)N[C@H](CCSC)C(N)=O [Peptide 44] (HELM PEPTIDE1{H.M.R.Y.K.Y.[dM].[am]}$$$$V2.0)
1000 to 10000	< 10	CSCC[C@H](NC(=O)[C@H](CCCNC(=N)N)NC(C)=O)C(=O)N[C@@H](CCCNC(=N)N)C(=O)N[C@@H](Cc1ccc(O)cc1)C(=O)N[C@@H](Cc1c[nH]c2ccccc12)C(=O)N[C@H](C(=O)N[C@H](CCSC)C(N)=O)C(C)C [Peptide 104] (HELM PEPTIDE1{[ac].R.M.R.Y.W.V.[dM].[am]}$$$$V2.0)
101 to 1000	< 10	CSCC[C@H](N)C(=O)N[C@@H](CCCNC(=N)N)C(=O)N[C@@H](Cc1ccc(O)cc1)C(=O)N[C@@H](Cc1c[nH]c2ccccc12)C(=O)N1CCC[C@H]1C(=O)N[C@H](CCSC)C(N)=O [Peptide 110] (HELM PEPTIDE1{M.R.Y.W.P.[dM].[am]}$$$$V2.0)
101 to 1000	< 10	CSCC[C@@H](NC(=O)[C@@H]1CCCN1C(=O)[C@H](Cc1ccc(O)cc1)NC(=O)[C@H](Cc1ccc(O)cc1)NC(=O)[C@H](CCCNC(=N)N)NC(=O)[C@H](Cc1c[nH]c2ccccc12)NC(C)=O)C(N)=O [Peptide 122] (HELM PEPTIDE1{[ac].W.R.Y.Y.P.[dM].[am]}$$$$V2.0)
1000 to 10000	11 to 100	CSCC[C@@H](NC(=O)[C@@H](NC(=O)[C@H](CC(N)=O)NC(=O)[C@H](Cc1ccc(O)cc1)NC(=O)[C@H](CCCNC(=N)N)NC(=O)[C@H](Cc1c[nH]c2ccccc12)NC(=O)[C@@H](N)CCCNC(=N)N)C(C)C)C(N)=O [Peptide 159] (HELM PEPTIDE1{R.W.R.Y.N.V.[dM].[am]}$$$$V2.0)
101 to 1000	< 10	CCCC(=O)N[C@@H](CCCNC(=N)N)C(=O)N[C@@H](CCSC)C(=O)N[C@@H](CCCNC(=N)N)C(=O)N[C@@H](Cc1ccc(O)cc1)C(=O)N[C@@H](Cc1c[nH]c2ccccc12)C(=O)N1CCC[C@H]1C(=O)N[C@H](CCSC)C(N)=O [Peptide 108] (HELM PEPTIDE1{[CCCC(=O)[*:2]].R.M.R.Y.W.P.[dM].[am]}$$$$V2.0)
